According to patent publication US20260078120A1, “SUBSTITUTED PYRIDOPYRIMIDINONES” (MIRATI THERAPEUTICS, INC., priority 2022, published 2026):

How the values were obtained:
[1] = test system: T47D (PI3Kα H1047R mutant) cells; experiment: CellTiter-Glo 2.0 luminescent cell viability assay, 72 hours, T47D cells; assay type: cell-based; settings: Homo sapiens, T47D, 72 h, T47D (PI3Kα H1047R mutant) cells, CellTiter-Glo, approximately 72 hours; read-out: T47D (H1047R mutant) Viability IC50
Procedure, shortened: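 Viability was measured by CellTiter-Glo 2.0 luminescence after approximately 72 h of compound exposure at 37° C. Plating was 1000 cells per well the day before dosing, with ten 1:4 dilutions from a 10 µM top concentration. Values as percent of vehicle were fitted by variable-slope log(inhibitor) regression to give IC50.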

[2] = test system: SKBR3 (PI3Kα wild type) cells; experiment: CellTiter-Glo 2.0 luminescent cell viability assay, 72 hours, SKBR3 cells; assay type: cell-based; settings: Homo sapiens, SK-BR-3, 72 h, SKBR3 (PI3Kα wild type) cells, CellTiter-Glo, approximately 72 hours; read-out: SKBR3 (WT) Viability IC50
Procedure, shortened: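 Viability measured via CTG luminescence following roughly 72 hours of compound exposure at 37° C. Dosing used a 10 um starting concentration diluted 1:4 over 10 points; percent-of-vehicle data fitted with a variable-slope four-parameter model for IC50.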

IC50 [1] [nM] | IC50 [2] [nM] | Compound
144 | 9620 | Cc1cc([C@@H](C)Nc2ccc(F)cc2C(=O)O)c2nc(N3Cc4ccccc4C3)c(C)c(=O)n2c1 [Example 11-366, (R)-5-fluoro-2-((1-(2-(isoindolin-2-yl)-3,7-dimethyl-4-oxo-4H-pyrido[1,2-a]pyrimidin-9-yl)ethyl)amino)benzoic acid]
> 10000 | > 10000 | COc1ccccc1-c1cc(=O)n2cc(C)cc(C(C)Nc3ccccc3C(=O)O)c2n1 (stereo not shown) [Example 11-394, 2-((1-(2-(2-methoxyphenyl)-7-methyl-4-oxo-4H-pyrido[1,2-a]pyrimidin-9-yl)ethyl)amino)benzoic acid]
473 | > 10000 | Cc1cc([C@@H](C)Nc2ccccc2C(=O)O)c2nc(N3CC[C@@H]3C(F)(F)F)c(C)c(=O)n2c1 [Example 11-98, 2-(((R)-1-(3,7-dimethyl-4-oxo-2-((R)-2-(trifluoromethyl)azetidin-1-yl)-4H-pyrido[1,2-a]pyrimidin-9-yl)ethyl)amino)benzoic acid]
132 | > 10000 | CO[C@H]1CN(c2nc3c([C@@H](C)Nc4ccccc4C(=O)O)cc(C)cn3c(=O)c2C)CCC1(F)F [Example 11-57, 2-(((R)-1-(2-((S)-4,4-difluoro-3-methoxypiperidin-1-yl)-3,7-dimethyl-4-oxo-4H-pyrido[1,2-a]pyrimidin-9-yl)ethyl)amino)benzoic acid]
273 | > 10000 | Cc1cc([C@@H](C)Nc2ccccc2C(=O)O)c2nc(N3CC[C@@H](C)C(F)(F)C3)c(C)c(=O)n2c1 [Example 11-59, 2-(((R)-1-(2-((R)-3,3-difluoro-4-methylpiperidin-1-yl)-3,7-dimethyl-4-oxo-4H-pyrido[1,2-a]pyrimidin-9-yl)ethyl)amino)benzoic acid]

Further lines, the compound ahead of its results:

Compound | IC50 [1] [nM] | IC50 [2] [nM]
Cc1cc([C@@H](C)Nc2ccccc2C(=O)O)c2nc(N3CCC4(CCO4)CC3)c(C)c(=O)n2c1 [Example 11-56, (R)-2-((1-(3,7-dimethyl-4-oxo-2-(1-oxa-7-azaspiro[3.5]nonan-7-yl)-4H-pyrido[1,2-a]pyrimidin-9-yl)ethyl)amino)benzoic acid] | 264 | > 10000
Cc1cc([C@@H](C)Nc2ccccc2C(=O)O)c2nc(-c3cn(-c4ccc(C#N)cc4)cn3)cc(=O)n2c1 [Example 11-237, (R)-2-((1-(2-(1-(4-cyanophenyl)-1H-imidazol-4-yl)-7-methyl-4-oxo-4H-pyrido[1,2-a]pyrimidin-9-yl)ethyl)amino)benzoic acid] | 1410 | > 10000
Cc1cc(C(=O)NC2(CC(=O)O)CCC2)c2nc(N3CCCCC3)c(C#N)c(=O)n2c1 [Example 11-316, 2-(1-(3-cyano-7-methyl-4-oxo-2-(piperidin-1-yl)-4H-pyrido[1,2-a]pyrimidine-9-carboxamido)cyclobutyl)acetic acid] | > 10000 | > 10000
Cc1cc([C@@H](C)Nc2ccccc2C(=O)O)c2nc(N3Cc4nc(C)sc4C3)c(C)c(=O)n2c1 [Example 11-15, (R)-2-((1-(3,7-dimethyl-2-(2-methyl-4,6-dihydro-5H-pyrrolo[3,4-d]thiazol-5-yl)-4-oxo-4H-pyrido[1,2-a]pyrimidin-9-yl)ethyl)amino)benzoic acid] | 156 | > 10000
Cc1cc([C@@H](C)Nc2ccccc2C(=O)O)c2nc(N3CC4CC4C3)c(C#N)c(=O)n2c1 (stereo partly drawn) [Example 11-223, 2-(((1R)-1-(2-(3-azabicyclo[3.1.0]hexan-3-yl)-3-cyano-7-methyl-4-oxo-4H-pyrido[1,2-a]pyrimidin-9-yl)ethyl)amino)benzoic acid] | 126 | > 10000
Cc1cc([C@@H](C)Nc2ccc(Cl)nc2C(=O)O)c2nc(N3CCN(c4ccc(C#N)cc4)C[C@H]3C)c(C#N)c(=O)n2c1 [Example 11-128, 6-chloro-3-(((R)-1-(3-cyano-2-((R)-4-(4-cyanophenyl)-2-methylpiperazin-1-yl)-7-methyl-4-oxo-4H-pyrido[1,2-a]pyrimidin-9-yl)ethyl)amino)picolinic acid] | 275 | > 10000
